We go through three compounds from US20230270764A1, “COMPOSITION COMPRISING CANNABINOIDS, TERPENES, AND FLAVONOIDS FOR TREATING DEPRESSION” (priority 2020, published 2023).

One assay concerns BV2 microglial cells. The assay can be described thus: LPS-induced TNFα secretion by BV2 microglia cell cultures (ELISA). Particulars: for levels of TNFα compared to cultures treated with vehicle and LPS: 24-hours incubation, CBD 10 but not 1 µM, linalool 100 but not 25 µM, kaempferol dose-dependently at 10, 25 and 50 µM, quercetin 10 and 25 but not 5 µM; for IC50: Mus musculus. Format: cell-based, murine. How it is done: The BV2 murine microglial cell line is used in these studies.
The BV2 cells are cultured at 37° C. in a humidified atmosphere with 5% CO2 in high D-glucose (4.5 g/L) Dulbecco’s modified Eagle’s medium (Sigma, Rehovot, Israel) supplemented with 5% heat-inactivated fetal bovine serum, streptomycin (100 µg/ml), and penicillin (100 units/ml) and sodium pyruvate (1 mM; all from Biological Industries Ltd., Kibbutz Beit Haemek, Israel). 24 hours before experiments with LPS stimulation, the BV2 cells are split into 24 well plates, 2×10^5 cells per well, covered with 1 ml of growth medium and allowed to attach overnight. 24 hr before experiments with α-synuclein, the BV2 cells are split into 96-well plates, 50,000 (5×10^4) cells per well, covered with 200 µl of growth medium and allowed to attach overnight. Cultures of BV2 microglia cells are first treated by an individual cannabinoid, or terpene or flavonoid selected from: Cannabidiol (CBD), Δ-9-tetrahydrocannabinol (THC), Δ-8-tetrahydrocannabinol (THC), cannabigerol (CBG), cannabichromene (CBC), cannabigerolic acid (CBGA), Cannabidiolic acid (CBDA), THC acid (THCA), cannabichromenic Acid (CBCA), Cannabidivarin (CBDV), tetrahydrocannabivarin (THCV), Cannabichromevarin (CBCV), Cannabichromerocin ([…]), Cannabivarin (CBV), Cannabicitran (CBT), Cannabinol (CBN), Cannabicyclol (CBL), Cannabigerorcin (CBGO), Cannabinodiol (CBND), β-caryophyllene, β-elemene, β-myrcene, linalool, α-pinene, β-pinene, eucalyptol, alpha-terpineol, valencene, geraniol (lemonol), bisabolol, nerolidol, ocimene, terpinolene, humulene, α-terpinene, camphene, fenchol, α-phellandrene, Δ3-carene, γ-cardinene, sabinene, limonene, β-amyrin, cycloartenol, cannflavin A, cannflavin B, kaempferol, quercetin, luteolin, apigenin, canniprene, orientin, β-sitosterol, vitexin, isovitexin, and chrysin. Additional cultures of BV2 microglia cells are treated by an individual cannabinoid, with at least one additional cannabinoid, and/or terpene, and/or flavonoid, and/or celecoxib. Additional cultures are exposed to the vehicle of these compounds (cremophor, ethanol and PBS, 1:1:18 (v/v/v)) (FIG. 2A). In some studies, cultures of BV2 microglia cells are treated by a specific whole plant cannabis extract, with or without supplementation with cannabinoid(s), and/or terpene(s) and/or flavonoid(s), and/or celecoxib (FIG. 2B).
For each individual cannabinoid mentioned above, 3-4 concentrations are used, ranging from 0.1 to 10 µM. For ultra-low dose Δ9-THC the concentration used is 0.01 µM. […] For celecoxib, 3-4 concentrations are used, ranging from 0.1 to 10 µM. Two hours following the treatment, the cultures are exposed to one of the following microglia stimulators: LPS (Sigma L2630; Escherichia coli serotype O111:B4) is dissolved in D-PBS (Sigma, D8537) to a pre-stock concentration of 1 mg/ml, aliquoted and stored at -80° C. Stock solution of LPS at 10 ug/ml is prepared using sterile D-PBS, followed by filtering via 0.22 µm filter membrane, aliquoting and storing in -20° C. LPS is applied into the cell medium at a final concentration of 100 ng/ml. Poly I:C (Sigma, P1530) was first dissolved in sterile, molecular grade water to the concentration of 10 mg/ml (following the manufacturer’s instructions). This stock solution was further diluted to the concentration of 1 mg/ml in sterile PBS, and the aliquots stored in -20 °C.
On the technique in general: In an ELISA, binding on a coated surface is turned into a signal by an enzyme label.

The test system of another assay is LPS-injected mice. Nature of the assay: Sucrose preference test in the LPS-induced model of depression. Particulars: Example 9; male C57BL/6, i.p. 1 h before LPS 330 µg/kg; mg/kg: CBD 30; CBDA 1 or 5; BCP 50; kaempferol 30; CBD 30 plus THC 10; CBD 30 plus kaempferol 30. In kind it is in vivo. The text has this:
In a preliminary screening experiment, subjects were 4-6 months-old male C57BL/6 (Jackson Laboratories, USA). Animals were housed 2-3/cage, kept in an air-conditioned room (23+°C) and given ad libitum access to food and water. The mice were kept in a reversed light/dark cycle, with lights off from 7 a.m. to 7 p.m. All experiments were approved by the Hebrew University of Jerusalem Ethics Committee on Animal Care and Use. In preparation for the Sucrose Preference Test, mice were habituated 2-3 times to sucrose drinking, by exposing them overnight to two graduated tubes, one containing water and the other containing sucrose solution (1%, w/v). Water and sucrose consumption were measured, and sucrose preference was computed by dividing the amount of sucrose consumed by drinking (ml sucrose) by the total drinking volume (ml of sucrose + water). One day later, the weight of the mice and the food in their cages was weighed for later analysis of food consumption and body weight changes. Groups of mice were injected intraperitoneally (i.p.) with either vehicle (cremophor, ethanol and PBS, 1:1:18 (v/v/v)) or a cannabinoid-based formulation (by itself or with another cannabinoid, or a terpene or a flavonoid). One hour later, each of these groups was injected with LPS (330 µg/kg). All injections were administered at a dose of 10 ml/kg. Four hours following the LPS injection, mice were tested in the Open-Field Test. In this test, the measured locomotor activity reflects not only motor capacity, but particularly the innate motivation for spatial exploration (which increases the distance travelled) and the anxiety level (which reduces the distance travelled, in general, and particularly the distance and time spent in the center of the open field). Each subject was placed near one of the walls of a white 50 X 50 cm^2 arena with 40 cm high walls. The distance travelled (cm), the velocity of the movement (cm/second), the time spent (seconds), distance travelled (cm) in the center area of the arena, as well as the number of entries from the perimeter area into the center of the arena were automatically measured over a 4-minute period, using EthoVision XT video tracking system and software (Noldus, The Netherlands). Twenty-four hours after the LPS injection, mice were tested in the Social Exploration Test. […] Social exploration, defined as the time of near contact between the nose of the subject and the juvenile in the small cage was recorded for 4 min, using computerized in-house software. Sucrose preference was assessed, as described above, between 8 to 27 hr post LPS injection. Body weight and weight of the food were measured two hours before the LPS injection, and again after 24 hours, and the change in body weight and food consumption were calculated. […]

[1] abbreviates: Example 4, by itself at 1, 2.5 and 5 µM.

Structures are written as SMILES. Where two headings read alike, the source gives them in different places.

The term IC50 denotes the point on the concentration scale where inhibition reaches its midpoint. For the compound `C=C(C)[C@@H]1CCC(C)=C[C@H]1c1c(O)cc(CCCCC)cc1O` [CBD, cannabidiol], the “levels of TNFα compared to cultures treated with vehicle and LPS” value in the assay with BV2 microglial cells is “reduced”. Further, the “release of TNFα” value in the assay on BV2 microglial cells (Example 3, 10 µM (not 1, 2.5 or 5 µM)) is reported as “significantly inhibited”. In addition, the “release of TNFα vs LPS-activated cultures treated with vehicle” value in the assay with BV2 microglial cells (setting [1]) is given as “no effects”; in the assay with BV2 microglial cells (Example 5, by themselves, CBD 1 and 2.5 µM, quercetin 1, 2.5 and 5 µM), “did not affect”; with BV2 microglial cells (Example 6, by itself, CBD 1, 2.5 and 5 µM, CBDV 1, 2.5, 5 and 10 µM), “no concentration of either CBD or CBDV by itself affected release of TNFα”. Moreover, in the assay on BV2 microglial cells (Example 5, CBD 5 µM alone (p<0.05)), the “TNFα secretion from LPS activated microglial cells” value is listed as “decreased the TNFα secretion”. The “inhibition of LPS-induced TNFα secretion” value in the assay on BV2 microglial cells (Example 7, by themselves) is on record as “did not produce significant inhibition”. In the assay on BV2 microglial cells (Example 25, LPS 100 ng/ml, CannA 5 and 10 µM, CBD and CannB only at 10 µM, CannC 1-10 µM, extract concentration as dominant cannabinoid), the “LPS-induced TNFα release” value was “significantly inhibited”. The IC50 was 2.3 µM with BV2 microglial cells (BV-2, read-out: CBD IC50, LPS-induced TNFα release, Example 4, addition of 1 µM kaempferol); 1.3 µM with BV2 microglial cells (BV-2, read-out: CBD IC50, LPS-induced TNFα release, Example 4, addition of 2.5 µM kaempferol); 0.8 µM in the assay on BV2 microglial cells (BV-2, read-out: CBD IC50, LPS-induced TNFα release, Example 4, addition of 5 µM kaempferol); 3.8 µM in the assay with BV2 microglial cells (BV-2, read-out: CBD IC50, LPS-induced TNFα release, Example 5, addition of 1 µM quercetin); 3.2 µM in the assay on BV2 microglial cells (BV-2, read-out: CBD IC50, LPS-induced TNFα release, Example 5, addition of 2.5 µM quercetin); 1.8 µM in the assay with BV2 microglial cells (BV-2, read-out: CBD IC50, LPS-induced TNFα release, Example 5, addition of 5 µM quercetin). Moreover, the IC50 in the assay on BV2 microglial cells (BV-2, read-out: CBD IC50, LPS-induced TNFα release, Example 6, addition of 1 µM CBDV) was found to be 3.4 µM; with BV2 microglial cells (BV-2, read-out: CBD IC50, LPS-induced TNFα release, Example 6, addition of 2.5 µM CBDV), 4.8 µM; in the assay with BV2 microglial cells (BV-2, read-out: CBD IC50, LPS-induced TNFα release, Example 6, addition of 5 µM CBDV), 2.7 µM; with BV2 microglial cells (BV-2, read-out: CBD IC50, LPS-induced TNFα release, Example 6, addition of 10 µM CBDV) it was 2.4 µM; with BV2 microglial cells (BV-2, read-out: IC50 for TNFα inhibition), 7.2 µM; in the assay with BV2 microglial cells (BV-2, read-out: IC50 for inhibiting LPS-induced TNFα release), 5.3 µM. Further, the IC50 is 6.2 µM in the assay with BV2 microglial cells (BV-2, read-out: IC50 for inhibiting LPS-induced TNFα release, Example 5 (FIG. 6C), by itself) and 5.4 µM in the assay with BV2 microglial cells (BV-2, read-out: IC50 for inhibiting LPS-induced TNFα release, Example 6 (FIG. 7C), by itself). The “sucrose preference compared with vehicle-treated groups” value in the assay with LPS-injected mice is recorded as “significantly increased sucrose preference”.

For `C=C(C)[C@@H]1CCC(C)=C[C@H]1c1c(O)cc(CCCCC)c(C(=O)O)c1O` [CBDA, Cannabidiolic acid], in the assay on BV2 microglial cells (THC 0.1, 0.5 and 1 µM, CBDA 0.2, 1 and 2 µM, CBC 0.1, 1 and 2 µM, α-pinene, β-pinene, limonene 25 or 100 µM), the “effect on lipopolysaccharide-induced TNFα secretion” value is “no effect”. Besides, in the assay with LPS-injected mice, the “sucrose preference compared with vehicle-treated groups” value is “significantly increased sucrose preference”.

In the case of `O=c1c(O)c(-c2ccc(O)cc2)oc2cc(O)cc(O)c12` [kaempferol], the “levels of TNFα compared to cultures treated with vehicle and LPS” value in the assay on BV2 microglial cells is reported as “reduced”. Further, the “release of TNFα vs LPS-activated cultures treated with vehicle” value in the assay on BV2 microglial cells (setting [1]) is reported as “no effects”. Moreover, the concentration for half-maximal inhibition (IC50) with BV2 microglial cells (BV-2, Example 4 (FIG. 5C), by itself, read-out: IC50 for inhibiting LPS-induced TNFα release) stood at 9.8 µM. Also, in the assay with LPS-injected mice, the “sucrose preference compared with vehicle-treated groups” value was “significantly increased sucrose preference”.
